Results as given in the supplement of paper PMC10307832.

Key:
Test in all cases: relative viability (nuclei count vs DMSO), 5 days (fraction); higher = more cells survive
[1] = compound: COc1cc(Nc2ncc3c(n2)-c2ccc(Cl)cc2C(c2c(F)cccc2OC)=NC3)ccc1C(=O)O [Alisertib] + C[C@]1(O)C[C@@H](c2nc(-c3ccc4ccc(-c5ccccc5)nc4c3)c3c(N)nccn32)C1 [Linsitinib] (partner 1 µM)
In short: (§1)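 Medians of duplicate plates are given as relative viability. That measure is the nuclei count in treated wells divided by the count in vehicle wells. Counts were taken on 4× images of lung cancer cell lines in 1536-well plates, 5 days after pin-tool dosing the day after seeding with one drug alone or a fixed anchor-drug dose plus five library-drug doses (not always all listed) in √10 steps.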

[2] = compound: COc1cc(Nc2ncc3c(n2)-c2ccc(Cl)cc2C(c2c(F)cccc2OC)=NC3)ccc1C(=O)O [Alisertib] + Nc1nc2[nH]cc(CCc3ccc(C(=O)N[C@@H](CCC(=O)O)C(=O)O)cc3)c2c(=O)[nH]1 [Pemetrexed] (partner 0.2 µM)
In short: as §1

[3] = compound: COc1cc(Nc2ncc3c(n2)-c2ccc(Cl)cc2C(c2c(F)cccc2OC)=NC3)ccc1C(=O)O [Alisertib] + O=C(CCCCCCC(=O)Nc1ccccc1)NO [Vorinostat] (partner 1 µM)
In short: as §1

[4] = compound: COc1cc(Nc2ncc3c(n2)-c2ccc(Cl)cc2C(c2c(F)cccc2OC)=NC3)ccc1C(=O)O [Alisertib] + O=C(c1cc(Cc2n[nH]c(=O)c3ccccc23)ccc1F)N1CCN(C(=O)C2CC2)CC1 [Olaparib] (partner 8 µM)
In short: as §1

Row | Cell Line | relative viability ([1]; first compound 0.005 µM) | relative viability ([1]; first compound 0.01581 µM) | relative viability ([1]; first compound 0.05 µM) | relative viability ([1]; first compound 0.1581 µM) | relative viability ([1]; first compound 0.5 µM) | relative viability ([2]; first compound 0.005 µM) | relative viability ([2]; first compound 0.01581 µM) | relative viability ([2]; first compound 0.05 µM) | relative viability ([2]; first compound 0.1581 µM) | relative viability ([2]; first compound 0.5 µM) | relative viability ([3]; first compound 0.005 µM) | relative viability ([3]; first compound 0.01581 µM) | relative viability ([3]; first compound 0.05 µM) | relative viability ([3]; first compound 0.1581 µM) | relative viability ([3]; first compound 0.5 µM) | relative viability ([4]; first compound 0.005 µM) | relative viability ([4]; first compound 0.01581 µM) | relative viability ([4]; first compound 0.05 µM) | relative viability ([4]; first compound 0.1581 µM) | relative viability ([4]; first compound 0.5 µM)
1 | NCI-H322M | 0.895 | 0.883 | 0.435 | 0.459 | 0.356 | 0.588 | 0.628 | 0.561 | 0.4 | 0.427 | 0.806 | 0.864 | 0.772 | 0.502 | 0.514 | 0.77 | 0.686 | 0.565 | 0.459 | 0.488
2 | NCI-H358 | 0.735 | 0.486 | 0.202 | 0.159 | 0.14 | 0.162 | 0.165 | 0.167 | 0.112 | 0.0889 | 0.551 | 0.449 | 0.105 | 0.1 | 0.0875 | 0.529 | 0.284 | 0.117 | 0.111 | 0.12
3 | NCI-H441 | 0.504 | 0.333 | 0.243 | 0.129 | 0.129 | 0.288 | 0.279 | 0.249 | 0.145 | 0.142 | 0.692 | 0.723 | 0.373 | 0.217 | 0.185 | 0.487 | 0.471 | 0.139 | 0.173 | 0.172
4 | NCI-H460 | 0.786 | 0.54 | 0.162 | 0.027 | 0.0144 | 0.0584 | 0.0653 | 0.0683 | 0.0474 | 0.0488 | 0.683 | 0.527 | 0.0348 | 0.039 | 0.0281 | 0.371 | 0.387 | 0.0754 | 0.0677 | 0.0562
5 | NCI-H520 | 0.805 | 0.667 | 0.423 | 0.308 | 0.22 | 0.653 | 0.491 | 0.346 | 0.273 | 0.253 | 0.588 | 0.455 | 0.325 | 0.276 | 0.208 | 0.317 | 0.244 | 0.217 | 0.18 | 0.249
6 | NCI-H596 |  | 1.02 | 0.969 | 0.967 | 0.404 | 0.504 | 0.506 | 0.473 | 0.447 | 0.38 | 0.514 | 0.655 | 0.616 | 0.488 | 0.311 | 0.779 | 0.773 | 0.627 | 0.522 | 0.254
7 | NCI-H647 | 1.15 | 0.883 | 0.373 | 0.287 | 0.0691 | 0.155 | 0.178 | 0.122 | 0.0903 | 0.0745 | 0.49 | 0.156 | 0.106 | 0.112 | 0.0745 | 0.367 | 0.278 | 0.086 | 0.0609 | 0.0531
